What was measured:
[1] = system: cell lines; settings: certain cell lines, compared with DOTMA; cited from earlier work
[2] = system: cell lines; settings: transfection of certain cell lines, compared with DOTMA; cited from earlier work
[3] = system: anti-CAT immune response in mice; experiment: ELISA and Western blot after IP immunization with CAT plasmids with different promoters (Example 3); assay type: in vivo; settings: compared with LIPOFECTACE
Method: A CAT enzyme-linked immunoassay (ELISA) was used to determine the presence of CAT antibodies in mouse sera samples. Microwell titer plates were prepared by incubating each well of the plate with 1 microgram/ml of CAT in 0.1 M sodium carbonate buffer, pH 9.5. The plates were incubated for 18 hours at 4ΕC. The wells were blocked with 0.2% ovalbumin dissolved in phosphate-buffered saline (PBS) with 0.1% Tween-20 (dilution buffer). Samples were diluted in the dilution buffer, and 200 microliters were added to a well on the plate. The plate was sealed, and then incubated for 60 minutes at 37 degrees C. Following a wash, the plates were incubated with 0.1 micrograms/ml goat anti-mouse IgG—horseradish peroxidase (HRP) conjugate. The plate was sealed and then incubated for 30 minutes at 37 degrees C. Following a second wash, the plates were developed with 3,3′,5,5′-tetramethylbenzidine substrate at room temperature. The reaction was stopped by adding 2N sulfuric acid.
The results were analyzed using Western Blot analysis. Nitrocellulose sheets were prepared by applying purified CAT protein to the nitrocellulose (0.1 micrograms CAT protein/cm nitrocellulose). Sera samples were diluted into dilution buffer and 2 ml were added to each nitrocellulose strip. The strips were incubated for 90 minutes with rocking at room temperature. […]

Compound	transfection efficiency [1]	toxicity [2]	consistency in generating an immune response (ELISA) [3]
CC(C)CCC[C@@H](C)[C@H]1CC[C@H]2[C@@H]3CC=C4C[C@@H](OC(=O)NCCN(C)C)CC[C@]4(C)[C@H]3CC[C@]12C [DC-Chol]	more efficient transfection	lower toxicity	–
CCCCCCCCCCCCCCCCCCN(CCCCCCCCCCCCCCCCCC)C(=O)CNC(=O)C(CCCNCCCN)NCCCN (stereo not shown) [DOGS, 5-carboxylspermylglycine dioctadecylamide]	more efficient	less toxic than DOTMA	–
CCCCCCCCCCCCCCCC(=O)OCC(COP(=O)(O)OCCNC(=O)C(CCCNCCCN)NCCCN)OC(=O)CCCCCCCCCCCCCCC (stereo not shown) [DPPES, dipalmitoylphosphatidylethanolamine 5-carboxyspermylamide]	more efficient	less toxic than DOTMA	–
CCCCCCCCC=CCCCCCCCCOCC(C[N+](C)(C)CCBr)OCCCCCCCCC=CCCCCCCCC.[Br-] (stereo not shown) [bromo lipid, 1-propanaminium, N-[2(2-bromo)ethyl]-N,N-dimethyl-2,3-bis(9-octadecenyloxy)-bromide]	–	–	more consistent results

Source: US7166298B2, “Genetic immunization with cationic lipids” (Invitrogen Corporation, priority 1993, dated 2007)
